The record followed here is PMC11352370, “Live Cell Monitoring of Phosphodiesterase Inhibition by Sulfonylurea Drugs” (Biomolecules, 2024).

The structures appear in SMILES notation.

In general, IC50 refers to the point on the concentration scale where inhibition reaches its midpoint. A low value points to higher potency.

The assay has as its system T1, PDE3B.
T1 construct: Epac2-camps-PDE3B fusion biosensor
The experiment in a line: live-cell FRET with Epac-camps/PDE3B fusion biosensors in HEK293a cells. The format is cell-based.

Take `CCCCNC(=O)NS(=O)(=O)c1ccc(C)cc1` [TOL, tolbutamide]: the IC50 was about 700 µM.
